{"source": "patent US20250302798A1", "about": "“STING INHIBITORS AND USE THEREOF” (CARMEL HAIFA UNIVERSITY ECONOMIC CORPORATION LTD., priority 2022, published 2025)", "tested_on": "STING-IFN-β axis", "test": "Zymosan A peritonitis in vivo, macrophage cytokines and STING pathway Western blotting", "set-up": "species or system mice", "details": "50 μM compound, 100 μl/mouse", "protocol": "FIGS. 6A-6D include graphs and an image showing that compound 2.1 activates in vivo the STING-IFN-β axis and enhances biased cytokine production by macrophages. Mice were injected with zymosan A for 66 h. Twenty-four 24 post peritonitis initiation (PPI) the mice were injected with DMSO (0.4%), 4 mg/kg DMXAA or 50 μM compound 2.1 (100 μl/mouse). Macrophages were collected from the spleen (6A-6C), or peritoneum (6D) and incubated for 24 h with LPS (1 μg/ml) or vehicle (6A-6C) or lysed and analyzed by Western blotting immediately for the STING pathway (6D). Culture supernatants from incubated macrophages were analyzed by ELISA for the secretion of TNFα (6A), IL-10 (6B), and IL-6 (6C). Results are mean±SEM of 3 experiments (6A-6C) or representative blots. One-way ANOVA, and Tukey HSD test * P≤0.05, ** P≤0.01.", "data": [{"compound": "c1ccc(CSc2nnc(CCCCCCCCc3nnc(SCc4ccccc4)o3)o2)cc1", "note": "[Compound 2.1, 2-(benzylsulfanyl)-5-{8-[5-(benzylsulfanyl)-1,3,4-oxadiazol-2-yl]octyl}-1,3,4-oxadiazole]", "values": [{"measurement": "STING-IFN-β axis in vivo", "setting": "24 h post peritonitis initiation, peritoneal macrophages", "result": "activates"}, {"measurement": "Biased cytokine production by macrophages (TNFα, IL-10, IL-6)", "setting": "spleen macrophages ex vivo ± LPS 1 μg/ml 24 h", "result": "enhances"}]}]}
